Data set [1] can be described thus: Unbound brain-to-plasma concentration ratio in rat at iv dosed for 4 to 24 hrs by LC-MS/MS analysis. The data set is classed as ADME, organism-based. To be noted: time 4-24 hrs; for Kp uu: read-out: K(p,uu,brain).
Data set [2] can be described thus: Clearance in rat plasma at iv dosed for 4 to 24 hrs by LC-MS/MS analysis. Particulars: time 4-24 hrs. The data set is classed as ADME, organism-based.
The nature of data set [3]: Unbound clearance in rat plasma at iv dosed for 4 to 24 hrs by LC-MS/MS analysis. The data set is classed as ADME, organism-based. Particulars: in vivo, time 4-24 hrs.
Data set [4] can be described thus: Intrinsic clearance in human liver microsomes. To be noted: read-out: CLH. Format: ADME, Microsome. For orientation: Liver microsomes are vesicles of endoplasmic reticulum, rich in cytochrome P450 enzymes.
Data set [5] can be described thus: Intrinsic clearance in human Hepatocyte. Particulars: hepatocytes, read-out: CLH. The data set is classed as ADME, cell-based.
A short description of data set [6]: AUCinfinity in rat at iv administration. To be noted: in vivo. Format: ADME, organism-based.
Data set [7] in a line: AUCinfinity in mouse at iv administration. The data set is classed as ADME, organism-based. Particulars: in vivo.
The nature of data set [8]: AUCinfinity in Cynomolgus monkey at iv administration. Format: ADME, organism-based, Macaca fascicularis. To be noted: in vivo.
Data set [9] in a line: AUCinfinity in iv dosed dog. The data set is classed as ADME, organism-based, Canis lupus familiaris. To be noted: in vivo.
Data set [10] in a line: Clearance in rat at iv administration. Format: ADME, organism-based. Particulars: in vivo.
Data set [11] can be described thus: Clearance in Cynomolgus monkey at iv administration. The data set is classed as ADME, organism-based, Macaca fascicularis. Particulars: in vivo.
Data set [12] in a line: Clearance in iv dosed dog. The data set is classed as ADME, organism-based, Canis lupus familiaris. Particulars: in vivo.
The nature of data set [13]: Unbound clearance in rat at iv administration. Format: ADME, organism-based. Particulars: in vivo.
A short description of data set [14]: Unbound clearance in mouse at iv administration. Format: ADME, organism-based. To be noted: in vivo.
Data set [15] is described as follows: Unbound clearance in Cynomolgus monkey at iv administration. The data set is classed as ADME, organism-based, Macaca fascicularis. Particulars: in vivo.
Data set [16] is described as follows: Unbound clearance in iv dosed dog. Format: ADME, organism-based, Canis lupus familiaris. Particulars: in vivo.
Data set [17] can be described thus: Volume of distribution at steady state in rat at iv administration. Format: ADME, organism-based. To be noted: in vivo, read-out: Vdss.
The nature of data set [18]: Volume of distribution at steady state in mouse at iv administration. Format: ADME, organism-based. Particulars: in vivo, read-out: Vdss.
Data set [19] is described as follows: Volume of distribution at steady state in Cynomolgus monkey at iv administration. The data set is classed as ADME, organism-based, Macaca fascicularis. To be noted: in vivo, read-out: Vdss.
Data set [20] can be described thus: Volume of distribution at steady state in iv dosed dog. The data set is classed as ADME, organism-based, Canis lupus familiaris. To be noted: in vivo, read-out: Vdss.
The nature of data set [21]: Half life in rat at iv administration. Format: ADME, organism-based. Particulars: in vivo.
Data set [22] can be described thus: Half life in mouse at iv administration. Format: ADME, organism-based. Particulars: in vivo.
Data set [23] is described as follows: Half life in Cynomolgus monkey at iv administration. The data set is classed as ADME, organism-based, Macaca fascicularis. Particulars: in vivo.
Data set [24] can be described thus: Half life in iv dosed dog. The data set is classed as ADME, organism-based, Canis lupus familiaris. Particulars: in vivo.
The nature of data set [25]: Tmax in rat at po administration. Format: ADME, organism-based. To be noted: in vivo.
Data set [26] can be described thus: Tmax in mouse at po administration. Format: ADME, organism-based. Particulars: in vivo.
A short description of data set [27]: Tmax in Cynomolgus monkey at po administration. Format: ADME, organism-based, Macaca fascicularis. To be noted: in vivo.
A short description of data set [28]: Tmax in po dosed dog. Format: ADME, organism-based, Canis lupus familiaris. To be noted: in vivo.
Data set [29] in a line: Oral bioavailability in rat. The data set is classed as ADME, organism-based. Particulars: in vivo.
The nature of data set [30]: Oral bioavailability in mouse. Format: ADME, organism-based. To be noted: in vivo.
The nature of data set [31]: Oral bioavailability in Cynomolgus monkey. The data set is classed as ADME, organism-based, Macaca fascicularis. Particulars: in vivo.
Data set [32] can be described thus: Oral bioavailability in dog. Particulars: in vivo. Format: ADME, organism-based, Canis lupus familiaris.

Where only a bound is given, the exact number is not on record here.

The clearance is the rate of elimination divided by the concentration. As for `COCC12CC(c3cn4cc(C(=O)Nc5cccn(C6CC6)c5=O)c(OC(C)C)nc4n3)(CO1)C2`, in data set [1], the Kp uu is 0.5. The molecule further registered a clearance in [2] of 20.8 mL/min/kg. In data set [3], this molecule gave a CL free of 170 mL/min/kg.
On to `CC(C)Oc1nc2nc(C34COC(C)(C3)C4)cn2cc1C(=O)Nc1cccn([C@H]2C[C@H]2C)c1=O`, for which the Kp uu in [1] amounted to 0.4.
Consider `CC(C)Oc1nc2nc(C34CCC(C)(C3)OC4)cn2cc1C(=O)Nc1cccn([C@H]2C[C@H]2F)c1=O` (single isomer, unassigned), for which the Kp uu in data set [1] was determined as 0.2. Moreover, the clearance in data set [2] was determined as 12.7 mL/min/kg. The molecule further returned a CL free in data set [3] of 306 mL/min/kg.
For `CC(C)Oc1nc2nc(C34COC(C3)C4)cn2cc1C(=O)Nc1cccn(C2CC2)c1=O`, the Kp uu in data set [1] was 0.4. In data set [2], the clearance was 8 mL/min/kg. The molecule further yielded a CL free in [3] of 88 mL/min/kg.
A word on the AUC(0-inf): it is the area under the concentration-time curve extrapolated to infinity. The term half-life denotes the time needed for the level to fall by half in the phase considered. A word on the Tmax: it is the time from dosing to the highest level. Regarding `CC(C)Oc1nc2nc(C34COC(C)(C3)C4)cn2cc1C(=O)Nc1cccn(C2CC2)c1=O`, in [1], the Kp uu amounted to 0.7. Besides, the figures for the CLint scaled in [4] and in data set [5] were under 5 mL/min/kg and 5.1 mL/min/kg, respectively. Further, the AUC(0-inf) in [6] was found to be 1040 ng·h/mL; in [7], 1020 ng·h/mL; in data set [8], 1130 ng·h/mL; in data set [9], 1400 ng·h/mL. Moreover, the values for the clearance in [10], in [11] and in [12] were 14.2 mL/min/kg, 15.1 mL/min/kg and 12.7 mL/min/kg, respectively. The CL free in [13] was determined as 171 mL/min/kg; in [14], 240 mL/min/kg; in data set [15], 98 mL/min/kg; in data set [16], 76 mL/min/kg. Moreover, the Vd in [17] was 2.9 L/kg; in data set [18], 1.5 L/kg; in [19] it was 0.9 L/kg; in [20], 1.4 L/kg. For the same molecule, the half-life in data set [21] was 2.5 h; in data set [22] it was 1.6 h; in [23], 0.8 h; in data set [24], 1.4 h. The time to peak (Tmax) in data set [25] was 0.25 h; in data set [26] it was 0.25 h; in [27] it was 1.2 h; in [28] it was 0.6 h. Besides, the bioavailability worked out at 128% in [29], 92% in data set [30], 61% in data set [31] and 89% in data set [32].
On to `CC(C)Oc1nc2nc(C34COC(C)(C3)C4)cn2cc1C(=O)Nc1cccn([C@H]2C[C@H]2F)c1=O` (single isomer, unassigned), for which the Kp uu in [1] was 0.3.
With `Cc1cnc2c(NC(=O)c3cn4cc(C56COC(C)(C5)C6)nc4nc3OC(C)C)cnn2c1`, the “K(p,uu,brain)” value in data set [1] (iv) is on record as 0.3.
With `COC[C@@]12CC[C@@](c3cn4cc(C(=O)Nc5cccn(C6CC6)c5=O)c(OC(C)C)nc4n3)(CO1)C2`, the Kp uu in data set [1] amounted to 0.2. In data set [2], this molecule showed a clearance of 17 mL/min/kg. The molecule also registered a CL free in data set [3] of 281 mL/min/kg.
The matching figures for `CC(C)Oc1nc2nc([C@@]34CC[C@@](C)(C3)OC4)cn2cc1C(=O)Nc1cccn(C2CC2)c1=O` (single isomer, unassigned): 0.3, 36 mL/min/kg and 310 mL/min/kg.
In the case of `CC(C)Oc1nc2nc(C34COC(CF)(C3)C4)cn2cc1C(=O)Nc1cccn(C2CC2)c1=O`, the Kp uu in data set [1] is 0.2. Also, the clearance in [2] stood at 9.6 mL/min/kg. This molecule also had a CL free in data set [3] of 51 mL/min/kg.
Take `COC[C@@]12CC[C@@](c3cn4cc(C(=O)Nc5cccn([C@H]6C[C@H]6F)c5=O)c(OC(C)C)nc4n3)(CO1)C2`: in data set [1], the Kp uu turned out to be 0.1. For the same molecule, the clearance in data set [2] was determined as 33 mL/min/kg. The molecule further showed a CL free in data set [3] of 312 mL/min/kg.

The values are drawn from ChEMBL document CHEMBL5506029 (J Med Chem, 2024).
